Assays:
Experiment in all cases: KINOMEscan competition binding
Details in all cases: compound 10.0 µM
AAK1 (human) = AAK1 (human) (UniProt Q2M2I8)
ACVR1 (human) = ACVR1 (human) (UniProt Q04771)
AKT2 (human) = AKT2 (human) (UniProt P31751)
AKT3 (human) = AKT3 (human) (UniProt Q9Y243)
AURKC (human) = AURKC (human) (UniProt Q9UQB9)
BMPR1B (human) = BMPR1B (human) (UniProt O00238)
CAMK2A (human) = CAMK2A (human) (UniProt Q9UQM7)
CAMKK2 (human) = CAMKK2 (human) (UniProt Q96RR4)
CDK15 (human) = CDK15 (human) (UniProt Q96Q40)
CDK19 (human) = CDK19 (human) (UniProt Q9BWU1)
CLK2 (human) = CLK2 (human) (UniProt P49760)
CSNK1G2 (human) = CSNK1G2 (human) (UniProt P78368)
EPHA6 (human) = EPHA6 (human) (UniProt Q9UF33)
EPHB4 (human) = EPHB4 (human) (UniProt P54760)
FES (human) = FES (human) (UniProt P07332)
FGFR4 (human) = FGFR4 (human) (UniProt P22455)
GSK3A (human) = GSK3A (human) (UniProt P49840)
IKBKB (human) = IKBKB (human) (UniProt O14920)
LCK (human) = LCK (human) (UniProt P06239)
MAP3K7 (human) = MAP3K7 (human) (UniProt O43318)
MAP3K9 (human) = MAP3K9 (human) (UniProt P80192)
MAPK10 (human) = MAPK10 (human) (UniProt P53779)
MERTK (human) = MERTK (human) (UniProt Q12866)
MYLK4 (human) = MYLK4 (human) (UniProt Q86YV6)
MYO3A (human) = MYO3A (human) (UniProt Q8NEV4)
NEK2 (human) = NEK2 (human) (UniProt P51955)
NLK (human) = NLK (human) (UniProt Q9UBE8)
NUAK2 (human) = NUAK2 (human) (UniProt Q9H093)
PIM3 (human) = PIM3 (human) (UniProt Q86V86)
PIP5K1A (human) = PIP5K1A (human) (UniProt Q99755)
PKMYT1 (human) = PKMYT1 (human) (UniProt Q99640)
PTK2 (human) = PTK2 (human) (UniProt Q05397)
RPS6KA2 KD1 (human) = RPS6KA2 KD1 (human) (UniProt Q15349)
SIK1 (human) = SIK1 (human) (UniProt P57059)
STK24 (human) = STK24 (human) (UniProt Q9Y6E0)
STK32C (human) = STK32C (human) (UniProt Q86UX6)
STK35 (human) = STK35 (human) (UniProt Q8TDR2)
STK4 (human) = STK4 (human) (UniProt Q13043)
TAOK3 (human) = TAOK3 (human) (UniProt Q9H2K8)
TGFBR1 (human) = TGFBR1 (human) (UniProt P36897)
Chain of TGFBR1 (human) (P36897 whole entry, looked up): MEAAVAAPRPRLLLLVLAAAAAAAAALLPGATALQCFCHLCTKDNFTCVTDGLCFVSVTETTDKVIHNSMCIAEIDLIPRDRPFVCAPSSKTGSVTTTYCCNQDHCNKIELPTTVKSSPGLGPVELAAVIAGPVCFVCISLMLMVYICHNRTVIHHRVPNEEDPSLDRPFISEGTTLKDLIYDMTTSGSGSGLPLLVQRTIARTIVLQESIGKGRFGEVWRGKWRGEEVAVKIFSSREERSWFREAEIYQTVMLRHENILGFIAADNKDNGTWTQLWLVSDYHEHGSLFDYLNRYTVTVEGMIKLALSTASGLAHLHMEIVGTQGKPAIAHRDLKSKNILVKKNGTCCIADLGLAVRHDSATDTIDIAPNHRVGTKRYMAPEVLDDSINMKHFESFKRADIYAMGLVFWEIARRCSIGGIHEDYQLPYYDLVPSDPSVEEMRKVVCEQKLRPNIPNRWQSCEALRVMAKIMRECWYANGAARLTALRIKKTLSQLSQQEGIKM

Chain of PIP5K1A (human) (Q99755 whole entry, looked up): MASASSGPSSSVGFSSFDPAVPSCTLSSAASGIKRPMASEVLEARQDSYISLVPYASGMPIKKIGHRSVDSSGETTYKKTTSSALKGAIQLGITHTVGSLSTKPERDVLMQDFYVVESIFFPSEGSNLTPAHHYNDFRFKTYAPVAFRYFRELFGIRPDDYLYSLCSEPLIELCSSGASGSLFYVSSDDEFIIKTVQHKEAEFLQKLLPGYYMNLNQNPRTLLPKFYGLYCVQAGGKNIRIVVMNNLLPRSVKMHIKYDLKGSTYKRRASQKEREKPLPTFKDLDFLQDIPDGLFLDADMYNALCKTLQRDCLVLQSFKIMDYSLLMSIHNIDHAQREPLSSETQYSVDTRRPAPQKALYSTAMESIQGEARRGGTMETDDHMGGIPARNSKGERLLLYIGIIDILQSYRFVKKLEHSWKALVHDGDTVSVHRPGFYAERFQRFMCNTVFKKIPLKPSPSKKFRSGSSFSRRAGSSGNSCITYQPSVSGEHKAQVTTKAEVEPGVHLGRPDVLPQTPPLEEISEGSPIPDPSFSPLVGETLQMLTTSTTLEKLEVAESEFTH
Chain of CSNK1G2 (human) (P78368 whole entry, looked up): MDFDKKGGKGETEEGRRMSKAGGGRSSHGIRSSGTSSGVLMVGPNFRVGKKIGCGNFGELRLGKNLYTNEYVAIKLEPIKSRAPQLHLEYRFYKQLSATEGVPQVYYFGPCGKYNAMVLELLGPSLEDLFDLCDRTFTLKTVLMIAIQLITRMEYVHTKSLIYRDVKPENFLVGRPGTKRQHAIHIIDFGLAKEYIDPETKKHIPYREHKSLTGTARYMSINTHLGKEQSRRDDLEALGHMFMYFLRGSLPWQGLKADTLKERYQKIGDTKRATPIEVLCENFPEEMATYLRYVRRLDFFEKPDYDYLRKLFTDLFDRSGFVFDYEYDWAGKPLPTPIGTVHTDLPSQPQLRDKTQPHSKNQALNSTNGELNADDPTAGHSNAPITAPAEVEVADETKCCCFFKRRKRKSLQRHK
Chain of STK35 (human) (Q8TDR2 whole entry, looked up): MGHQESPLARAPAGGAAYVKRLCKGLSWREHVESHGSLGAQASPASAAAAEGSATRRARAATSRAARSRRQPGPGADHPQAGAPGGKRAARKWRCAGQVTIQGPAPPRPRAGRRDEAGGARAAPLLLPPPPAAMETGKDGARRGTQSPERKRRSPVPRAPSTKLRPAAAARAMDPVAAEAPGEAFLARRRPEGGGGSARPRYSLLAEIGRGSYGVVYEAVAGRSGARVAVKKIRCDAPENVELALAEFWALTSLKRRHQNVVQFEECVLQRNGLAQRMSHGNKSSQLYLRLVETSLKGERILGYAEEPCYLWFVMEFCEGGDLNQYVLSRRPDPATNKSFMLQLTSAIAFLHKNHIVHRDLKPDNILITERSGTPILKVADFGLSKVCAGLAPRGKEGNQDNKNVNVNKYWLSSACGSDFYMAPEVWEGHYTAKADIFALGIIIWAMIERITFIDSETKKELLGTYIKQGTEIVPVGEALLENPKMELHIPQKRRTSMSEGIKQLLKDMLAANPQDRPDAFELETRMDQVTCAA
Chain of GSK3A (human) (P49840 whole entry, looked up): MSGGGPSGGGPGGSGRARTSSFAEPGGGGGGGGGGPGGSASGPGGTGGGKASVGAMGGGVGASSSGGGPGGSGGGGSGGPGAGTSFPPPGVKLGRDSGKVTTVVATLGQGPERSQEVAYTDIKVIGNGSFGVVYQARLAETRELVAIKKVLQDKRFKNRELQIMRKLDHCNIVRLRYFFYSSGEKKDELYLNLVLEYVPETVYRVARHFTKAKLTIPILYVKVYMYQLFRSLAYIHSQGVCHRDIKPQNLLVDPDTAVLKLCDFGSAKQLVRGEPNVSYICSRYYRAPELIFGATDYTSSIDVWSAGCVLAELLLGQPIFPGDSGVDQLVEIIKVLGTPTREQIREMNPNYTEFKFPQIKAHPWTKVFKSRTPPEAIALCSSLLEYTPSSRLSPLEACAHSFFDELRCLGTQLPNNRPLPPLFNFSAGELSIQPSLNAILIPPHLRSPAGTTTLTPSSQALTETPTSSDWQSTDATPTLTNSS
Chain of STK32C (human) (Q86UX6 whole entry, looked up): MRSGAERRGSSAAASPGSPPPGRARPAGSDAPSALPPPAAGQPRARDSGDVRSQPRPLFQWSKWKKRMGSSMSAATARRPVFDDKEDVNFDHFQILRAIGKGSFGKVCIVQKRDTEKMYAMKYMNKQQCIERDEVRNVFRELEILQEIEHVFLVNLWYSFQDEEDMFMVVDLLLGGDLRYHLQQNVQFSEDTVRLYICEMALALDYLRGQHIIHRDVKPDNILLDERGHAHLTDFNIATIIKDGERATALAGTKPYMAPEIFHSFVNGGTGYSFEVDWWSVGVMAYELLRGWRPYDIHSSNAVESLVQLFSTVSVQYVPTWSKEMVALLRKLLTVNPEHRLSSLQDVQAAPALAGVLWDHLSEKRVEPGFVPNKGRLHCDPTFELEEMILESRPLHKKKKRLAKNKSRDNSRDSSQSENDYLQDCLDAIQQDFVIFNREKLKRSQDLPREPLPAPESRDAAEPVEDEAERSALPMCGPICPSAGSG
Chain of SIK1 (human) (P57059 whole entry, looked up): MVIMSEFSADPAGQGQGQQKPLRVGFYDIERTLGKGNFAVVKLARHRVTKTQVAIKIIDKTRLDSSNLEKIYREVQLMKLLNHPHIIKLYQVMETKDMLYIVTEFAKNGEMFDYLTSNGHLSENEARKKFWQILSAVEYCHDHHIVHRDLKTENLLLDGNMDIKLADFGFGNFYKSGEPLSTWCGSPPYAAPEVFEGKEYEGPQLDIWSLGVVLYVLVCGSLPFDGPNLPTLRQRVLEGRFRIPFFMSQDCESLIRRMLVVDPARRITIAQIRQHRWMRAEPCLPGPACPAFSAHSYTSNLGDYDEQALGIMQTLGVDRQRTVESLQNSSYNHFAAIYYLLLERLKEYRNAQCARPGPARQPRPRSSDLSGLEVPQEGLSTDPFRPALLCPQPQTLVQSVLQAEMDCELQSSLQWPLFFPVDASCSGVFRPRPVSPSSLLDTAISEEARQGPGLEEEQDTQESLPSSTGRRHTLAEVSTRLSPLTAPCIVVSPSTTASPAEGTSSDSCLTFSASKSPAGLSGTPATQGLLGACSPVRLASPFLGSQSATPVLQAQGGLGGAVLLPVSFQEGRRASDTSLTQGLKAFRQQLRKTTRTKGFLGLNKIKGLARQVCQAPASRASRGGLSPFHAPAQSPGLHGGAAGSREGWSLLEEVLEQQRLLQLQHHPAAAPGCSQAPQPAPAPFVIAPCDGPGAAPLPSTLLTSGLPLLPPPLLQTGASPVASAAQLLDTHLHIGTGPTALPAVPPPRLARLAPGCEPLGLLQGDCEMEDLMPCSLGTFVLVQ
Chain of CAMKK2 (human) (Q96RR4 whole entry, looked up): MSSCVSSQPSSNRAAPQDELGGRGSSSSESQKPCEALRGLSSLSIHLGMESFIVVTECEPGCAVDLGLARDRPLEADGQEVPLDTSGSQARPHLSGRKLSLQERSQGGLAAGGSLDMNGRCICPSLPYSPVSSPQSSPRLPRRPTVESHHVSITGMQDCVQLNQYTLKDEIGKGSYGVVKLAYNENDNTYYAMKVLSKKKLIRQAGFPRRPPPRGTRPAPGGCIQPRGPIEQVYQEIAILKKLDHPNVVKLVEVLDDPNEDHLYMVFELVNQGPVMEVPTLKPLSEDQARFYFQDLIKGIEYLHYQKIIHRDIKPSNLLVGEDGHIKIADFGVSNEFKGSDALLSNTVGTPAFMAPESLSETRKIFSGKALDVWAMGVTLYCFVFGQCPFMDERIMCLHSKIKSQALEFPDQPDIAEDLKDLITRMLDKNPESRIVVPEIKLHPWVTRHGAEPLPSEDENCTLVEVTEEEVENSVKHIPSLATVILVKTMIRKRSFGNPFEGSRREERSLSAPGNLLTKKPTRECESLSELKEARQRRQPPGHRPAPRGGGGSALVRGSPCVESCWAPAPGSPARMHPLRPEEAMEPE
Chain of MAP3K7 (human) (O43318 whole entry, looked up): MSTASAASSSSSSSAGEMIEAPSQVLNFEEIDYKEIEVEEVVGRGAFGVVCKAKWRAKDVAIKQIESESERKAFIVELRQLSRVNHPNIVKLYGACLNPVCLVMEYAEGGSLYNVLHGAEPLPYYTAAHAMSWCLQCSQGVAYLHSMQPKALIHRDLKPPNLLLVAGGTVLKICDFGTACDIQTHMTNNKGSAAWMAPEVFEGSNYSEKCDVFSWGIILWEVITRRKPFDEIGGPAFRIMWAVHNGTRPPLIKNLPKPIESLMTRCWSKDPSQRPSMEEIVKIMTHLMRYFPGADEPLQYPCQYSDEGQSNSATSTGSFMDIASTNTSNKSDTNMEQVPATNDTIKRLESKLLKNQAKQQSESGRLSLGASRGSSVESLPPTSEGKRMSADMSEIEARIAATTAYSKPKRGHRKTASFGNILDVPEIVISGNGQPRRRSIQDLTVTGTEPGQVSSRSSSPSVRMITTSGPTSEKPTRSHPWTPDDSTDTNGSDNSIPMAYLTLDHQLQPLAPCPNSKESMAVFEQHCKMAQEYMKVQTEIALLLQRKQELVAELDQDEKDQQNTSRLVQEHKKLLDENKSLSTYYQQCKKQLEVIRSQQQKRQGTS

SMILES | kinase still bound, per cent of control (AAK1 (human)) [%] | kinase still bound, per cent of control (ACVR1 (human)) [%] | kinase still bound, per cent of control (AKT2 (human)) [%] | kinase still bound, per cent of control (AKT3 (human)) [%] | kinase still bound, per cent of control (AURKC (human)) [%] | kinase still bound, per cent of control (BMPR1B (human)) [%] | kinase still bound, per cent of control (CAMK2A (human)) [%] | kinase still bound, per cent of control (CAMKK2 (human)) [%] | kinase still bound, per cent of control (CDK15 (human)) [%] | kinase still bound, per cent of control (CDK19 (human)) [%] | kinase still bound, per cent of control (CLK2 (human)) [%] | kinase still bound, per cent of control (CSNK1G2 (human)) [%] | kinase still bound, per cent of control (EPHA6 (human)) [%] | kinase still bound, per cent of control (EPHB4 (human)) [%] | kinase still bound, per cent of control (FES (human)) [%] | kinase still bound, per cent of control (FGFR4 (human)) [%] | kinase still bound, per cent of control (GSK3A (human)) [%] | kinase still bound, per cent of control (IKBKB (human)) [%] | kinase still bound, per cent of control (LCK (human)) [%] | kinase still bound, per cent of control (MAP3K7 (human)) [%] | further results
COc1cc(N2CCN(C)CC2)ccc1Nc1nc(N)c(C(=O)c2c(Cl)cccc2Cl)s1 | 61 | 100 | 100 | 100 | 100 | 90 | 20 | 14 | 26 | 93 | 13 | 100 | 99 | 97 | 45 | 89 | 67 | 96 | 86 | 78 | kinase still bound, per cent of control (MAP3K9 (human)): 100%; kinase still bound, per cent of control (MAPK10 (human)): 100%; kinase still bound, per cent of control (MERTK (human)): 87%; kinase still bound, per cent of control (MYLK4 (human)): 100%; kinase still bound, per cent of control (MYO3A (human)): 85%; kinase still bound, per cent of control (NEK2 (human)): 100%; kinase still bound, per cent of control (NLK (human)): 85%; kinase still bound, per cent of control (NUAK2 (human)): 60%; kinase still bound, per cent of control (PIM3 (human)): 100%; kinase still bound, per cent of control (PIP5K1A (human)): 88%; kinase still bound, per cent of control (PKMYT1 (human)): 100%; kinase still bound, per cent of control (PTK2 (human)): 62%; kinase still bound, per cent of control (RPS6KA2 KD1 (human)): 84%; kinase still bound, per cent of control (SIK1 (human)): 86%; kinase still bound, per cent of control (STK24 (human)): 77%; kinase still bound, per cent of control (STK32C (human)): 99%; kinase still bound, per cent of control (STK35 (human)): 100%; kinase still bound, per cent of control (STK4 (human)): 100%; kinase still bound, per cent of control (TAOK3 (human)): 12%; kinase still bound, per cent of control (TGFBR1 (human)): 100%
O=C(NC1CC1)c1cccc(-c2ccc3c(NC(=O)C4CC4)n[nH]c3c2)c1 | 10 | 48 | 91 | 100 | 8.6 | 91 | 88 | 94 | 84 | 79 | 37 | 94 | 100 | 100 | 100 | 94 | 84 | 78 | 100 | 56 | kinase still bound, per cent of control (MAP3K9 (human)): 66%; kinase still bound, per cent of control (MAPK10 (human)): 61%; kinase still bound, per cent of control (MERTK (human)): 71%; kinase still bound, per cent of control (MYLK4 (human)): 42%; kinase still bound, per cent of control (MYO3A (human)): 72%; kinase still bound, per cent of control (NEK2 (human)): 80%; kinase still bound, per cent of control (NLK (human)): 31%; kinase still bound, per cent of control (NUAK2 (human)): 24%; kinase still bound, per cent of control (PIM3 (human)): 70%; kinase still bound, per cent of control (PIP5K1A (human)): 28%; kinase still bound, per cent of control (PKMYT1 (human)): 77%; kinase still bound, per cent of control (PTK2 (human)): 90%; kinase still bound, per cent of control (RPS6KA2 KD1 (human)): 96%; kinase still bound, per cent of control (SIK1 (human)): 84%; kinase still bound, per cent of control (STK24 (human)): 82%; kinase still bound, per cent of control (STK32C (human)): 89%; kinase still bound, per cent of control (STK35 (human)): 16%; kinase still bound, per cent of control (STK4 (human)): 76%; kinase still bound, per cent of control (TAOK3 (human)): 33%; kinase still bound, per cent of control (TGFBR1 (human)): 77%

From the kinase profiling compilation of Christmann-Franck et al. (2016)
